These molecules were tested against T1, RHOA (Homo sapiens, UniProt P61586) (assay: surface plasmon resonance, immobilized RHOA (Reichert SR7500DC)).
T1 construct: commercial RHOA protein (Sigma-Aldrich SRP5127), immobilized on CMDH gold chip
Type: binding

T1 sequence (P61586 whole entry): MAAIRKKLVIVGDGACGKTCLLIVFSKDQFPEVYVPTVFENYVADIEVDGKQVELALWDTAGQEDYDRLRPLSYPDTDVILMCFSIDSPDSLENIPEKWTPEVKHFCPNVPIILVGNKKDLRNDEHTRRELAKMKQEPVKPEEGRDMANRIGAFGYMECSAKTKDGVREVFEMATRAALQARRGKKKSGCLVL

Q: `O=S(=O)(N/N=C/c1ccc2c(c1)OCO2)c1ccccc1` [JK-121] was tested. Which Kd did it give?
A: The Kd was 67 ± 3 µM.

Q: With `O=C(N/N=C/c1ccc2c(c1)OCO2)c1ccccc1` [JK-122] as the molecule, how does the Kd read?
A: Its Kd is 6.9 ± 0.4 µM.

Q: How did the Kd turn out when `O=C(N/N=C/c1ccc2c(c1)OCO2)c1ccncc1` [JK-123] was run?
A: Its Kd is 16.3 ± 0.4 µM.

Q: Which Kd does the source give for `O=C(N/N=C/c1ccc2c(c1)OCO2)c1ccc(O)cc1` [JK-124] here?
A: The Kd was 44 ± 2 µM.

Q: For `CC(=O)N/N=C/c1ccc2c(c1)OCO2` [JK-125], which Kd is on record?
A: The Kd was 8.7 ± 6 µM.
